In patent publication US20210038730A1, “PEPTIDE NANOFIBERS” (UNIVERSITY OF PORTSMOUTH HIGHER EDUCATION CORPORATION, priority 2018, published 2021):

Legend:
[1] = Isoelectric point by acid-base titration; format: physicochemical
Experimental: Both peptides were characterised by electrospray ionisation (positive/negative) mass spectrometry (MS), nuclear magnetic resonance (NMR), RP-HPLC, attenuated total reflectance Fourier-transformed infrared (ATR-FTIR) spectroscopy, thermogravimetric analysis (TGA) and differential scanning calorimetry (DSC). The isoelectric point of the peptides was also determined using an acid-base titration.

[2] = Release from 3D printed cellulose-sodium alginate bioinks; format: physicochemical; details: PBS
Experimental: Peptide nanofibers were embedded in cellulose nanocrystals and sodium alginate hydrogels. Cellulose nanocrystals were synthesised by sulphuric acid degradation (45% w/v, 150 mls) of cellulose (15 g, Western Hemlock) at 50° C. over 90 minutes under stirring. Cold-deionised water was used to quench reaction and acid was removed by centrifugation (4,000 rpm, 10 minutes). Cellulose nanocrystals were dialysed (12-14 kDa for cytochrome C, Medicell Ltd) over 5 L with 6 changes over 24 hours. Resulting suspension was probe sonicated (400 watt, 23% amplitude, 10 minutes) in 50 mLs aliquots. The resulting suspension was centrifuged (4,000 rpm, 10 minutes) and supernatant was stored in the refrigerator. Cellulose nanocrystals (CNCs, 4.5% w/w, 2 g) were loaded onto a syringe attached to a three-way valve, where a syringe loaded sodium alginate (6% w/w in 4.6% glucose, 1.7 g). The CNCs were injected in the sodium alginate syringe and mixed 10 times (in each direction). Sample was collected in one syringe and a new syringe containing calcium chloride (0.1M, 0.9 mL). Sample was pushed into calcium chloride and mixed 5 times (in each direction) prior collecting the gel in one syringe and loading in cartridges. Peptide nanofibers (5 mg) were dispersed in 0.9 mL of 0.1M calcium chloride and mixed as above when needed. Release of paclitaxel loaded and TPGnRH gels in PBS (1×, 7.4, 6 mLs) was quantified as per HPLC method described previously (Example 7, Table 2). After an initial burst release, a controlled release profile is observed with gradual slow release over days. Resulting inks can be utilised for the production of nanofiber loaded implants for tumour patients.

[3] = Critical aggregation concentration, thioflavin T assay; format: physicochemical; details: PBS pH 7.4
Experimental: (§1) Critical aggregation concentration (CAC) of TPGnRH was determined using pyrene ^1-4 and thioflavin T ^5, 6. The peptide solutions (3.5-700 μM) were prepared in phosphate-buffered saline (PBS, 0.01 M, pH 7.4) either by a dilution of a stock solution at 700 μM or solutions prepared at the required concentration. In the pyrene assay, pyrene was dissolved in methanol at 250 μM, dispersed into a black 96-well plate, and methanol was evaporated overnight. TPGnRH solutions were added to pyrene and incubated at 37° C. for 24 hours under stirring. Fluorescence spectra was recorded λex at 334 nm. For the thioflavin T assay, peptide solutions were added to freshly prepared thioflavin Tat 50 μM. All peptide samples were incubated during 5 minutes at room temperature and fluorescence was measured at λex at 450 nm and λem at 482 nm.
PAX:TPGnRH formulation at a molar ratio 1:7.36 was diluted in PBS (0.01 M, pH 7.4) from 22,000 to 7 μM of TPGnRH. Diluted formulations (20 μL) were added to 80 μL of Thioflavin T at 50 μM, incubated for 5 minutes at room temperature, and fluorescence was measured at λex 450 and λem 482 in a black 96-well plate using the Synergy H1 Microplate Reader (BioteK, Vermont, USA).

[4] = system: rat red blood cells (RBCs); format: cell-based; details: 1 hour, 37° C., read-out: IC50 of haemolysis
Experimental: Fresh blood, obtained from adult male Wistar rats (250 to 300 g) (Bioresources Unit, School of Pharmacy and Biomedical Sciences, University of Portsmouth, Portsmouth, UK) was collected in sterile lithium heparin-coated tubes (170 I.U., Vacutainer, BD Bioscience, UK) and kept on ice. To isolate the rat red blood cells (RBCs), fresh blood was centrifuged at 2,000 g using Haraeus Multifuge […] (Thermo Scientific, UK) at 4° C. for 10 minutes. The supernatant was removed, and the final volume was raised to the whole blood volume with PBS (0.01 M, pH 7.4). RBCs were centrifuged at 2,000 g for 10 minutes and washed with PBS three times. After the washing steps, two cell suspensions were prepared: 4% (w/v) RBCs in PBS and 1% (v/v) Triton X-100 (i.e. 1 g of cells in 25 mL of PBS or 1% (v/v) Triton X-100). RBCs in PBS and in Triton X-100 were used as a negative and positive control, respectively. […] After incubation, the cells were centrifuged at 1,200 g using a Haraeus Multifuge […] (Thermo Scientific, UK) during 10 minutes. The supernatant (100 μL) was transferred to a 96-well plate, and absorbance was measured at 590 nm. Percentage of haemolysis was calculated using Equation 1: [formula] Abs Negative Control represents the absorbance of the RBCs in PBS and Abs Positive Control the absorbance of the RBCs in 1% (v/v) Triton X-100. A control for Cremophor EL and ethanol mixture was also included.

[5] = Critical aggregation concentration, pyrene assay; format: physicochemical; details: PBS pH 7.4, 37° C., 24 hours
Experimental: as §1

SMILES: CCCCCCCCCCCCCCCC(=O)Oc1ccc(C[C@H](NC(=O)[C@H](CO)NC(=O)[C@H](Cc2c[nH]c3ccccc23)NC(=O)[C@H](Cc2c[nH]cn2)NC(=O)[C@@H](N)CCC(=O)O)C(=O)NCC(=O)N[C@@H](CC(C)C)C(=O)N[C@@H](CCCNC(=N)N)C(=O)N2CCC[C@H]2C(=O)NCC(N)=O)cc1 [TPGnRH, Tyrosine (O-Palmitoyl)-Glu-GnRH]
- Isoelectric point [1]: 6.28±0.51
- % release from 3D printed bioink ([2]; 0 minutes): 0%
- % release from 3D printed bioink ([2]; 1 minutes): 15.4 ± 9.6%
- % release from 3D printed bioink ([2]; 5 minutes): 15.4 ± 7.8%
- % release from 3D printed bioink ([2]; 10 minutes): 16.3 ± 11.5%
- % release from 3D printed bioink ([2]; 15 minutes): 15.4 ± 4.6%
- % release from 3D printed bioink ([2]; 30 minutes): 16.4 ± 4.9%
- % release from 3D printed bioink ([2]; 45 minutes): 14.7 ± 6.9%
- % release from 3D printed bioink ([2]; 60 minutes): 19.7 ± 8.5%
- % release from 3D printed bioink ([2]; 90 minutes): 20.6 ± 4.6%
- % release from 3D printed bioink ([2]; 120 minutes): 21.8 ± 9.4%
- % release from 3D printed bioink ([2]; 240 minutes): 20.6 ± 10.7%
- % release from 3D printed bioink ([2]; 360 minutes): 22.6 ± 7.4%
- % release from 3D printed bioink ([2]; 1110 minutes): 24.5 ± 7.9%
- % release from 3D printed bioink ([2]; 1440 minutes): 28.5 ± 9.8%
- % release from 3D printed bioink ([2]; 2760 minutes): 32.1 ± 9.7%
- minimal CAC (self-assembly into long-axial nanofibers) [3]: 135 µM
- IC50 [4]: ~200 µM
- CAC (self-assembly into aggregates) [5]: 7 µM
